Experimental data taken from the NIST ThermoML archive (doi:10.1016/j.jct.2004.11.016).
± gives the expanded uncertainty stated by the source.

Columns and labels:
[1] = xn = mol fraction of the nth substance listed; details: Liquid, x2 = 0; for viscosity: 101 kPa; for mass density: 101.3 kPa
[2] = Liquid; for mass density: 101.3 kPa; for viscosity: 101 kPa

O [water] + CN(C)CCO
[1]
Details | mass density [kg/m3] | viscosity [mPa·s]
313.15 K | – | 0.651 ± 0.01
323.15 K | 988.03 ± 0.57 | 0.544 ± 0.009
328.15 K | 985.688 ± 0.59 | –
333.15 K | 983.191 ± 0.6 | 0.463 ± 0.008
338.15 K | 980.546 ± 0.62 | –
343.15 K | 977.759 ± 0.64 | 0.396 ± 0.007
348.15 K | 974.838 ± 0.66 | –
353.15 K | 971.785 ± 0.68 | 0.348 ± 0.006
358.15 K | 968.606 ± 0.7 | –
363.15 K | 965.305 ± 0.72 | –

CN(C)CCO [2-(N,N-dimethylamino)ethanol]
[2]
Details | mass density [kg/m3] | viscosity [mPa·s]
293.15 K | 887.816 ± 1.2 | –
298.15 K | 883.578 ± 1.2 | –
303.15 K | 879.315 ± 1.3 | –
308.15 K | 875.017 ± 1.3 | –
313.15 K | 870.686 ± 1.3 | 2.238 ± 0.033
318.15 K | 866.316 ± 1.3 | –
323.15 K | 861.902 ± 1.4 | 1.756 ± 0.026
328.15 K | 857.46 ± 1.4 | –
333.15 K | 852.965 ± 1.4 | 1.413 ± 0.021
338.15 K | 848.423 ± 1.5 | –
343.15 K | 843.844 ± 1.5 | 1.156 ± 0.017
348.15 K | 839.205 ± 1.5 | –
353.15 K | 834.521 ± 1.5 | 0.963 ± 0.015
358.15 K | 829.779 ± 1.6 | –
363.15 K | 824.969 ± 1.6 | –

O [water]
[2]
Details | mass density [kg/m3] | viscosity [mPa·s]
313.15 K | – | 0.651 ± 0.01
323.15 K | 988.03 ± 0.57 | 0.544 ± 0.009
328.15 K | 985.688 ± 0.59 | –
333.15 K | 983.191 ± 0.6 | 0.463 ± 0.008
338.15 K | 980.546 ± 0.62 | –
343.15 K | 977.759 ± 0.64 | 0.396 ± 0.007
348.15 K | 974.838 ± 0.66 | –
353.15 K | 971.785 ± 0.68 | 0.348 ± 0.006
358.15 K | 968.606 ± 0.7 | –
363.15 K | 965.305 ± 0.72 | –
